Assay: Dissolution studies of Lasofoxifene in organic solvents and surfactants
Type: physicochemical
Conditions: Lasofoxifene 2 mg/ml in the labelled solvent/surfactant; visual examination
Description: The solubility of Lasofoxifene was investigated by screening various organic solvents and surfactants in increasing concentrations. The term “formulation” may refer to a pharmaceutical composition comprising […] pharmaceutically acceptable excipients.
First, 1 mg of Lasofoxifene was weighed into Eppendorf vessels and 500 μl of organic solvents and surfactants as listed in Table 20 were added. In cases of insufficient dissolution of the API, samples were treated with ultrasound for 30 min and, if necessary, heated to 50° C. while shaking (300 rpm). Afterwards, samples were examined visually regarding drug dissolution. In case of entire dissolution, the experiment was repeated with increasing drug concentrations until maximum dissolution was achieved. In addition, further organic solvents and surfactants were tested.

CC(=O)OCC(COC(C)=O)OC(C)=O [Triacetin (TAC), Triacetin]
Dissolution of Lasofoxifene in various organic solvents and surfactants, 2 mg/ml: not dissolved

— patent US10857127B2, “Vaginal delivery systems containing selective estrogen receptor modulator (SERM) and uses thereof” (Azure Biotech, Inc., priority 2016, dated 2020)
